± gives the standard deviation of the averaged measurements.
Legend:
17-AAG = compound: C=CCNC1=C2C[C@@H](C)C[C@H](OC)[C@H](O)[C@@H](C)/C=C(\C)[C@H](OC(N)=O)[C@@H](OC)/C=C\C=C(/C)C(=O)NC(=CC1=O)C2=O [17-AAG]; test: surviving fraction relative to DMSO-only wells; higher = less growth inhibition; conditions: exposure time: 5 days
How it was run: (§1)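 Viability was determined by CellTiter-Glo luminescence, expressed as surviving fraction normalised to the median of DMSO-only wells. The cells were log-phase tumour cell lines seeded at 250–500 per well in 384-well plates and, after 24 hours, exposed continuously for five days to inhibitors at 0.5, 1, 5, 10, 50, 100, 500 and 1000 nM. Three screens per line were run, keeping only lines with replicate Pearson r >0.7 and median Z' >0.3.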

DECITABINE = compound: Nc1ncn([C@H]2C[C@H](O)[C@@H](CO)O2)c(=O)n1 [DECITABINE]; test: as above; conditions: exposure time: 5 days
How it was run: as §1

Row | Test System | surviving fraction (17-AAG; 0.5 nM) | surviving fraction (17-AAG; 1 nM) | surviving fraction (17-AAG; 5 nM) | surviving fraction (17-AAG; 10 nM) | surviving fraction (17-AAG; 50 nM) | surviving fraction (17-AAG; 100 nM) | surviving fraction (17-AAG; 500 nM) | surviving fraction (17-AAG; 1000 nM) | surviving fraction (DECITABINE; 0.5 nM) | surviving fraction (DECITABINE; 1 nM) | surviving fraction (DECITABINE; 5 nM) | surviving fraction (DECITABINE; 10 nM) | surviving fraction (DECITABINE; 50 nM) | surviving fraction (DECITABINE; 100 nM) | surviving fraction (DECITABINE; 500 nM) | surviving fraction (DECITABINE; 1000 nM)
1 | SG27 HEADNECK | 1.046 ± 0.0051 | 1.07 ± 0.073 | 0.913 ± 0.039 | 0.93 ± 0.026 | 1.31 ± 0.16 | 1.1 ± 0.24 | 0.274 ± 0.044 | 0.111 ± 0.014 | 1.17 ± 0.15 | 1.12 ± 0.06 | 1.15 ± 0.14 | 1.07 ± 0.14 | 1.2 ± 0.065 | 1.18 ± 0.14 | 1.11 ± 0.063 | 1.19 ± 0.16
2 | SG28 HEADNECK | 0.93 ± 0.048 | 0.918 ± 0.069 | 0.86 ± 0.05 | 0.776 ± 0.064 | 0.551 ± 0.11 | 0.322 ± 0.016 | 0.0967 ± 0.014 | 0.0863 ± 0.0032 | 1.14 ± 0.054 | 1.28 ± 0.038 | 1.2 ± 0.062 | 1.06 ± 0.098 | 1.25 ± 0.14 | 1.11 ± 0.045 | 1.11 ± 0.13 | 1.065 ± 0.0021
3 | SG31 HEADNECK | 0.87 ± 0.024 | 0.911 ± 0.052 | 0.874 ± 0.15 | 0.753 ± 0.14 | 0.642 ± 0.064 | 0.302 ± 0.034 | 0.047 ± 0.0092 | 0.0317 ± 0.0029 | 1.27 ± 0.12 | 1.2 ± 0.059 | 1.14 ± 0.083 | 1.13 ± 0.1 | 1.08 ± 0.04 | 0.952 ± 0.11 | 1.01 ± 0.13 | 0.909 ± 0.095
4 | SG32 HEADNECK | 0.955 ± 0.12 | 0.834 ± 0.19 | 0.875 ± 0.16 | 0.881 ± 0.14 | 0.528 ± 0.097 | 0.259 ± 0.042 | 0.0457 ± 0.0023 | 0.034 ± 0.0044 | 1.25 ± 0.11 | 1.26 ± 0.16 | 1.12 ± 0.12 | 1.16 ± 0.067 | 1.25 ± 0.36 | 1.1 ± 0.14 | 0.908 ± 0.071 | 0.715 ± 0.064
5 | SG43 HEADNECK | 1.1 ± 0.2 | 1.1 ± 0.22 | 1.05 ± 0.043 | 0.801 ± 0.25 | 0.302 ± 0.069 | 0.074 ± 0.034 | 0.03 ± 0.004 | 0.028 ± 0.0062 | 1.02 ± 0.031 | 1.14 ± 0.16 | 0.953 ± 0.11 | 1.03 ± 0.48 | 0.835 ± 0.18 | 0.868 ± 0.2 | 0.812 ± 0.062 | 0.8 ± 0.049
6 | SIHA CERVIX | 1.01 ± 0.073 | 0.939 ± 0.033 | 0.969 ± 0.18 | 0.895 ± 0.032 | 0.581 ± 0.077 | 0.211 ± 0.012 | 0.171 ± 0.0082 | 0.18 ± 0.017 | 1.08 ± 0.026 | 0.979 ± 0.052 | 1.08 ± 0.02 | 1.05 ± 0.055 | 1.07 ± 0.055 | 1.08 ± 0.085 | 0.983 ± 0.055 | 0.988 ± 0.11
7 | SJSA1 BONE | 0.84 ± 0.049 | 0.865 ± 0.064 | 0.872 ± 0.023 | 0.846 ± 0.029 | 0.217 ± 0.02 | 0.106 ± 0.0032 | 0.0517 ± 0.0055 | 0.0433 ± 0.0011 | 0.512 ± 0.028 | 1.53 ± 0.038 | 1.63 ± 0.11 | 0.545 ± 0.031 | 1.55 ± 0.081 | 1.68 ± 0.022 | 1.73 ± 0.05 | 1.77 ± 0.053
8 | SKBR3 BREAST | 0.752 ± 0.21 | 0.76 ± 0.055 | 0.497 ± 0.033 | 0.365 ± 0.026 | 0.25 ± 0.018 | 0.205 ± 0.013 | 0.177 ± 0.019 | 0.173 ± 0.0038 | 1.02 ± 0.11 | 1.12 ± 0.0031 | 1.13 ± 0.035 | 0.959 ± 0.042 | 1.03 ± 0.094 | 1 ± 0.1 | 0.996 ± 0.017 | 0.931 ± 0.089
9 | SNU475 LIVER | 0.864 ± 0.017 | 0.884 ± 0.013 | 0.792 ± 0.036 | 0.418 ± 0.062 | 0.259 ± 0.02 | 0.234 ± 0.0059 | 0.248 ± 0.013 | 0.23 ± 0.029 | 1.06 ± 0.024 | 1.05 ± 0.024 | 1.051 ± 0.0036 | 1.02 ± 0.026 | 1.03 ± 0.017 | 0.984 ± 0.038 | 1.03 ± 0.036 | 1.03 ± 0.032
10 | SUM44 BREAST | 0.897 ± 0.02 | 0.863 ± 0.051 | 0.759 ± 0.026 | 0.522 ± 0.026 | 0.539 ± 0.021 | 0.494 ± 0.014 | 0.456 ± 0.017 | 0.464 ± 0.012 | 1.15 ± 0.17 | 1.1 ± 0.16 | 1.17 ± 0.23 | 1.14 ± 0.17 | 1.31 ± 0.26 | 1.23 ± 0.15 | 1.13 ± 0.12 | 1.15 ± 0.069
11 | SUM149 BREAST | 0.924 ± 0.031 | 0.964 ± 0.026 | 0.87 ± 0.053 | 0.35 ± 0.018 | 0.0457 ± 0.0049 | 0.034 ± 0.004 | 0.0233 ± 0.0023 | 0.0237 ± 0.00058 | 1.11 ± 0.11 | 1.03 ± 0.13 | 0.845 ± 0.047 | 0.807 ± 0.09 | 0.366 ± 0.0027 | 0.359 ± 0.022 | 0.261 ± 0.0076 | 0.245 ± 0.012
12 | SUM149.B1*.S BREAST | 0.9335 ± 0.0026 | 0.893 ± 0.032 | 0.905 ± 0.038 | 0.83 ± 0.017 | 0.201 ± 0.021 | 0.131 ± 0.018 | 0.083 ± 0.019 | 0.0832 ± 0.014 | 1.09 ± 0.037 | 1.03 ± 0.044 | 1.05 ± 0.06 | 0.98 ± 0.058 | 0.749 ± 0.062 | 0.66 ± 0.062 | 0.553 ± 0.043 | 0.496 ± 0.061
13 | SUM159 BREAST | 1.02 ± 0.087 | 0.998 ± 0.046 | 0.993 ± 0.062 | 0.946 ± 0.044 | 0.0997 ± 0.0055 | 0.0537 ± 0.0086 | 0.053 ± 0.0046 | 0.0527 ± 0.01 | 1.1 ± 0.024 | 1.079 ± 0.0093 | 1.09 ± 0.023 | 1.06 ± 0.017 | 1.05 ± 0.012 | 1.028 ± 0.004 | 1.03 ± 0.015 | 0.9957 ± 0.0076
14 | SYO1 SYNOVIAL | 0.8369 ± 0.0068 | 0.819 ± 0.049 | 0.8483 ± 0.0038 | 0.8 ± 0.038 | 0.488 ± 0.042 | 0.183 ± 0.012 | 0.0407 ± 0.0017 | 0.0322 ± 0.0014 | 0.991 ± 0.024 | 0.998 ± 0.021 | 0.933 ± 0.021 | 0.917 ± 0.022 | 0.663 ± 0.015 | 0.629 ± 0.013 | 0.439 ± 0.02 | 0.383 ± 0.0062
15 | T47D BREAST | 0.943 ± 0.058 | 0.914 ± 0.035 | 0.944 ± 0.011 | 0.958 ± 0.046 | 0.928 ± 0.023 | 0.747 ± 0.032 | 0.4288 ± 0.004 | 0.425 ± 0.0062 | 1.03 ± 0.049 | 1.06 ± 0.035 | 1.05 ± 0.029 | 1.04 ± 0.028 | 1.12 ± 0.049 | 1.08 ± 0.024 | 1.04 ± 0.049 | 1.06 ± 0.057
16 | U2OS BONE | 0.943 ± 0.049 | 0.9303 ± 0.0058 | 0.991 ± 0.018 | 0.886 ± 0.05 | 0.627 ± 0.0092 | 0.143 ± 0.004 | 0.0713 ± 0.0021 | 0.0763 ± 0.0032 | 1.02 ± 0.043 | 1.01 ± 0.052 | 1.04 ± 0.054 | 1.01 ± 0.021 | 0.992 ± 0.029 | 0.902 ± 0.045 | 0.679 ± 0.055 | 0.699 ± 0.013
17 | VCAP PROSTATE | 0.94 ± 0.075 | 0.969 ± 0.054 | 1.12 ± 0.17 | 1.03 ± 0.12 | 0.683 ± 0.066 | 0.19 ± 0.018 | 0.167 ± 0.016 | 0.183 ± 0.03 | 1.11 ± 0.099 | 1.17 ± 0.031 | 1.25 ± 0.14 | 1.18 ± 0.095 | 1.09 ± 0.035 | 1.09 ± 0.11 | 1.01 ± 0.094 | 0.875 ± 0.062
18 | VP229 BREAST | 0.808 ± 0.1 | 0.782 ± 0.031 | 0.842 ± 0.076 | 0.773 ± 0.085 | 0.641 ± 0.089 | 0.387 ± 0.042 | 0.101 ± 0.013 | 0.0917 ± 0.012 | 1.09 ± 0.062 | 1.13 ± 0.093 | 0.996 ± 0.13 | 0.952 ± 0.11 | 0.966 ± 0.067 | 0.959 ± 0.028 | 0.871 ± 0.056 | 0.798 ± 0.097
19 | YAMATO SYNOVIAL | 0.976 ± 0.059 | 0.815 ± 0.022 | 0.936 ± 0.084 | 0.89 ± 0.039 | 1.22 ± 0.039 | 0.735 ± 0.064 | 0.357 ± 0.0093 | 0.318 ± 0.0064 | 1.26 ± 0.05 | 1.11 ± 0.081 | 1.17 ± 0.086 | 0.995 ± 0.098 | 1.02 ± 0.081 | 1.04 ± 0.034 | 0.907 ± 0.034 | 0.811 ± 0.035
20 | ZR751 BREAST | 1.17 ± 0.2 | 1.04 ± 0.12 | 0.994 ± 0.1 | 0.618 ± 0.13 | 0.22 ± 0.022 | 0.228 ± 0.032 | 0.213 ± 0.013 | 0.207 ± 0.024 | 1.21 ± 0.096 | 1.2 ± 0.073 | 1.22 ± 0.11 | 1.05 ± 0.16 | 0.988 ± 0.12 | 1.13 ± 0.12 | 0.865 ± 0.012 | 0.866 ± 0.059

— the supplement of paper PMC6045584
